{"source": "paper PMC7664879", "about": "“Discovery of 12O—A Novel Oral Multi-Kinase Inhibitor for the Treatment of Solid Tumor” (Molecules, 2020)", "key": {"SKOV3": {"system": "SKOV3", "test": "CCK-8 cell growth inhibition, SKOV3", "format": "cell-based, human", "conditions": "Homo sapiens, SK-OV-3; CCK-8 assay, 72-h incubation; read-out: Cell Lines IC50 SKOV3", "description": "(§1) In vitro anticancer screening of all newly synthesized compounds towards human solid tumor cells, cervical (SiHa) and ovarian (SKOV3) cancer cell lines, was carried out by standard CCK-8 assay with cisplatin as the positive control, as cisplatin is one of the most used chemotherapy drugs. […] The compound was further evaluated in a dose response study against a panel of solid tumor cells, including cervical cancer cell lines (SiHa and HeLa), ovarian cancer cell lines (SKOV3 and OVCAR-5), breast cancer cell lines (4T1 and MCF-7), lung cancer cell lines (A549 and H460) to test cytotoxic activity. The IC50 values were summarized in Table 2, including the cytotoxic activity of the cisplatin used as reference compound.\n(§2) The viability of cells as determined using the CCK8 assay method. Cells were seeded (2000–3000 cells per well) in 96-well plates. After incubation for 24 h in serum-containing media, the cells were treated with drugs at different concentrations diluted with culture medium for 72 h at 37 °C with a 5% CO2 atmosphere. Then, 10 μL CCK8 regent (Promega, WI) was added to each well, and the plates were incubated for 1–4 h at 37 °C. Finally, absorbance values of test wells (AS), control wells (AC) and blank wells (Ab) at 450 nm were read using the Microplate Reader (Promega, WI). Inhibition ratios were calculated as follows: [(AC − AS)/ (AC−Ab)] × 100%. IC50 values were calculated using GraphPad software."}, "HeLa": {"system": "HeLa", "test": "CCK-8 cell growth inhibition, HeLa", "format": "cell-based, human", "conditions": "Homo sapiens, HeLa; cervical cancer; CCK-8 assay, 72-h incubation", "description": "as §1\nas §2, with “Then, 10 μL CCK8 regent (Promega, WI) was added to each well, and the plates were incubated for 1–4 h at 37 °C.” left out"}, "4T1": {"system": "4T1", "test": "CCK-8 cell growth inhibition, 4T1", "format": "cell-based", "conditions": "Mus musculus, 4T1; breast cancer; CCK-8 assay, 72-h incubation", "description": "as §1\nas §2, with “Then, 10 μL CCK8 regent (Promega, WI) was added to each well, and the plates were incubated for 1–4 h at 37 °C.” left out"}, "OVCAR-5": {"system": "OVCAR-5", "test": "CCK-8 cell growth inhibition, OVCAR-5", "format": "cell-based, human", "conditions": "Homo sapiens, OVCAR-5; ovarian cancer; CCK-8 assay, 72-h incubation", "description": "as §1\nas §2, with “Then, 10 μL CCK8 regent (Promega, WI) was added to each well, and the plates were incubated for 1–4 h at 37 °C.” left out"}, "A549": {"system": "A549", "test": "CCK-8 cell growth inhibition, A549", "format": "cell-based, human", "conditions": "Homo sapiens, A549; lung cancer; CCK-8 assay, 72-h incubation", "description": "as §1\nas §2, with “Then, 10 μL CCK8 regent (Promega, WI) was added to each well, and the plates were incubated for 1–4 h at 37 °C.” left out"}, "H460": {"system": "H460", "test": "CCK-8 cell growth inhibition, H460", "format": "cell-based, human", "conditions": "Homo sapiens, NCI-H460; lung cancer; CCK-8 assay, 72-h incubation", "description": "as §1\nas §2, with “Then, 10 μL CCK8 regent (Promega, WI) was added to each well, and the plates were incubated for 1–4 h at 37 °C.” left out"}, "CDK9/cyclin T1(h)": {"molecular_target": "T1, CDK9/cyclin T1(h) (Homo sapiens, UniProt P50750)", "T1 construct": "purchased Eurofins (KinaseProfiler service)", "T1 sequence (P50750 whole entry)": "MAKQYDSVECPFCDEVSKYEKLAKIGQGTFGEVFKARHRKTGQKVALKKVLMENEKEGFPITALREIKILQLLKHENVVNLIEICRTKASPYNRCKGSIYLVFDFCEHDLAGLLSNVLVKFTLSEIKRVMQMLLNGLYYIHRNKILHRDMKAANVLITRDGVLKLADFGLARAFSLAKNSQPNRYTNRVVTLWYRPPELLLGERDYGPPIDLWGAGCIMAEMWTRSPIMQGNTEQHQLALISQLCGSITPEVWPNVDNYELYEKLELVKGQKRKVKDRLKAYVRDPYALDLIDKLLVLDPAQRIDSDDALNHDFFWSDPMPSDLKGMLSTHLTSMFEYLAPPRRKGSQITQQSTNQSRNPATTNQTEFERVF", "T1 sequence (O60563 whole entry partner)": "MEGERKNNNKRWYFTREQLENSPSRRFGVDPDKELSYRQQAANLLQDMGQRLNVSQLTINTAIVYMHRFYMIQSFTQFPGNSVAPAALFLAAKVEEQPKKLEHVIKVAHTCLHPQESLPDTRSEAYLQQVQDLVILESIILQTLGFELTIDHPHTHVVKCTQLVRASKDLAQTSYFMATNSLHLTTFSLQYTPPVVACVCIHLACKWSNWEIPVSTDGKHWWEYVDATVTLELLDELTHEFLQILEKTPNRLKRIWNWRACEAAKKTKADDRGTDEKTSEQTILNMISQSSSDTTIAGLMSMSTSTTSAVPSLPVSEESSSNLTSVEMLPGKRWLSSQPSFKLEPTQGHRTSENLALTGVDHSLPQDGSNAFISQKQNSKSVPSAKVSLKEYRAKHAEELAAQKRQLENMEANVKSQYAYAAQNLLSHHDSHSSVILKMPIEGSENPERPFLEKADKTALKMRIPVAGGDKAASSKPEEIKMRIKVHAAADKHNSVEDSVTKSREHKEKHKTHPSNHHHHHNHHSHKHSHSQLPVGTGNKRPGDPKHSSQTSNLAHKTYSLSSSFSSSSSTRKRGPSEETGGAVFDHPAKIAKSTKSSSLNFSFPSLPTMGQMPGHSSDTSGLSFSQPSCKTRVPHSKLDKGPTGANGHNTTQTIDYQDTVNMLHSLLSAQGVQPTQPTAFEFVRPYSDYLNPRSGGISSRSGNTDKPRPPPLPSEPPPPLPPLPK", "test": "Kinase inhibition assay (Eurofins KinaseProfiler)", "format": "biochemical", "conditions": "ATP at Km", "description": "(§3) Kinase inhibition profiles were determined using KinaseProfiler services provided by Eurofins, and ATP concentrations used are the Km of corresponding kinases.\nCDK9/cyclinT1 (h) was incubated with 8 mM MOPS pH 7.0, 0.2 mM EDTA, 100 uM […], 10 mM MgAcetate and [gamma-33P]-ATP (specific activity and concentration as required).\n(§4) All the reactions above were initiated by the addition of the Mg/ATP mix. After incubation for 40 min at room temperature, the reaction was stopped by the addition of phosphoric acid to a concentration of 0.5%. An amount of 10 µL of the reaction was then spotted onto a P30 filtermat and washed four times for 4 min in 0.425% phosphoric acid and once in methanol prior to drying and scintillation counting."}, "Abl(h)": {"molecular_target": "T2, Abl(h) (Homo sapiens, UniProt P00519)", "T2 construct": "purchased Eurofins (KinaseProfiler service)", "test": "Kinase inhibition assay (Eurofins KinaseProfiler)", "format": "biochemical", "conditions": "ATP at Km", "description": "as §3\n(§5) Flt1 (h) was incubated with 8 mM MOPS pH 7.0, 0.2 mM EDTA, 250 uM KKKSPGEYVNIEFG, 10 mM MgAcetate and [g- 33P]-ATP; Flt3 (h) [Abl (h)] was incubated with 8 mM MOPS pH 7.0, 0.2 mM EDTA, 50 uM EAIYAAPFAKKK, 10 mM MgAcetate and [gamma-33P]- ATP; Flt4 (h) was incubated with 8 mM MOPS pH 7.0, 0.2 mM EDTA, 500 uM GGEEEEYFELVKKKK, 10 mM MgAcetate and [gamma-33P]-ATP.\nas §4"}, "FLT1 (VEGFR1)": {"molecular_target": "T3, FLT1 (VEGFR1) (Homo sapiens, UniProt P17948)", "T3 construct": "purchased Eurofins (KinaseProfiler service)", "test": "Kinase inhibition assay (Eurofins KinaseProfiler)", "format": "biochemical", "conditions": "ATP at Km", "description": "as §3, §5, §4"}, "FLT3(h)": {"molecular_target": "T4, FLT3(h) (Homo sapiens, UniProt P36888)", "T4 construct": "purchased Eurofins (KinaseProfiler service)", "T4 sequence (P36888 27-993)": "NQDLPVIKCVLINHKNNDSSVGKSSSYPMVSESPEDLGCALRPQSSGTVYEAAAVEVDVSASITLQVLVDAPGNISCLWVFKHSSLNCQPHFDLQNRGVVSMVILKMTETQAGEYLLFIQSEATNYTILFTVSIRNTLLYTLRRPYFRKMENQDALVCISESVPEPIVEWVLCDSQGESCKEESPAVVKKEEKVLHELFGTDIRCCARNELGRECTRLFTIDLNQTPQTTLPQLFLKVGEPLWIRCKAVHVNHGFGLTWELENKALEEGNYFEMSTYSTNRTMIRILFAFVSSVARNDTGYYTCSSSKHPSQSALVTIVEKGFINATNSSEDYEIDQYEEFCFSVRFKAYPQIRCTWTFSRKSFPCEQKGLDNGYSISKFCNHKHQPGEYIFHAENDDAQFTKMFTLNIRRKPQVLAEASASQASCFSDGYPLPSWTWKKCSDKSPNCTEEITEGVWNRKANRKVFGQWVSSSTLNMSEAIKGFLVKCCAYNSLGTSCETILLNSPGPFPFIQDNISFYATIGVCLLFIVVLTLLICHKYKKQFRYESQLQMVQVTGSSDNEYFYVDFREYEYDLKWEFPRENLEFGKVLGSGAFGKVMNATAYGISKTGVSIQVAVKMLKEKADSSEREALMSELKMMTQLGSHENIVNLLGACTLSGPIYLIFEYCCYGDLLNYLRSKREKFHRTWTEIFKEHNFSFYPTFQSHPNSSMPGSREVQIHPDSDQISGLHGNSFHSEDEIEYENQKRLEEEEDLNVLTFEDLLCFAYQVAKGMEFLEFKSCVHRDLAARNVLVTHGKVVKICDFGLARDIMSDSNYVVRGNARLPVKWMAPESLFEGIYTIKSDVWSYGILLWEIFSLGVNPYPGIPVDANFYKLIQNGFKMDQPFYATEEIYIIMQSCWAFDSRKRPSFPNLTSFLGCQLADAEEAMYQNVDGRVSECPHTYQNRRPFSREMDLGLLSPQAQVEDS", "test": "Kinase inhibition assay (Eurofins KinaseProfiler)", "format": "biochemical", "conditions": "ATP at Km", "description": "as §3, §5, §4"}, "FLT4 (VEGFR3)": {"molecular_target": "T5, FLT4 (VEGFR3) (Homo sapiens, UniProt P35916)", "T5 construct": "purchased Eurofins (KinaseProfiler service)", "T5 sequence (P35916 25-1363)": "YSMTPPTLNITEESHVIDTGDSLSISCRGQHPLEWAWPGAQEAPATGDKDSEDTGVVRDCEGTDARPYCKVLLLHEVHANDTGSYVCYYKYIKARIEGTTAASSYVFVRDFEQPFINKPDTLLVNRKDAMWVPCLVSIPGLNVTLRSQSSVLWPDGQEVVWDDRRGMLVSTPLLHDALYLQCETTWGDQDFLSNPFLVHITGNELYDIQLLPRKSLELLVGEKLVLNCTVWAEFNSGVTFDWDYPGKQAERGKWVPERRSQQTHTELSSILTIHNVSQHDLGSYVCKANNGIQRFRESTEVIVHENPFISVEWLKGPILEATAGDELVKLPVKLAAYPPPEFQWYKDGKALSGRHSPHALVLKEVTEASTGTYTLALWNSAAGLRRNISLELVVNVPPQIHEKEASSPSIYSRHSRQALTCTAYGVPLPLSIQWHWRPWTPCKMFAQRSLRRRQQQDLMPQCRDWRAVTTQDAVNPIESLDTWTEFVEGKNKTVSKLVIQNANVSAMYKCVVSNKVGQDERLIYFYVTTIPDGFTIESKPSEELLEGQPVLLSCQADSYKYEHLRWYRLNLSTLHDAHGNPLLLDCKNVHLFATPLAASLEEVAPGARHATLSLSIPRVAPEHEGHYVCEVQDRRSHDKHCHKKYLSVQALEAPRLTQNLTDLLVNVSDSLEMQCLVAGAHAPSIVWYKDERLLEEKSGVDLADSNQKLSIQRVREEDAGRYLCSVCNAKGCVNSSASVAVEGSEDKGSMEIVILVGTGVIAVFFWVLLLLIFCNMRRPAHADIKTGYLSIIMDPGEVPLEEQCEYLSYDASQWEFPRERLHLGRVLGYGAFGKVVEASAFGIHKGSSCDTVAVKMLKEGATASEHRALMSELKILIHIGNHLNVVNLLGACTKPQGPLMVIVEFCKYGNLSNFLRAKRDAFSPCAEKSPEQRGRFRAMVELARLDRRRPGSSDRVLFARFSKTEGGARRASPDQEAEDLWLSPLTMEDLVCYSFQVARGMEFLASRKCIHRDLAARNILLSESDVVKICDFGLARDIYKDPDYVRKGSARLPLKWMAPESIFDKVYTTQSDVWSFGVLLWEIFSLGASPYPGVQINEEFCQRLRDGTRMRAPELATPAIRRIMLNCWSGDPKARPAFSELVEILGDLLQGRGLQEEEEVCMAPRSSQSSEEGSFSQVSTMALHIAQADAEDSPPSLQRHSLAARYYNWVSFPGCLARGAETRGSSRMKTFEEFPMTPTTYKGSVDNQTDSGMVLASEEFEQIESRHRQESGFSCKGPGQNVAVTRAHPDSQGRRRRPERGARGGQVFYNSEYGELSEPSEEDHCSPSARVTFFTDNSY", "test": "Kinase inhibition assay (Eurofins KinaseProfiler)", "format": "biochemical", "conditions": "ATP at Km", "description": "as §3, §5, §4"}, "c-Kit(h)": {"molecular_target": "T6, c-Kit(h) (Homo sapiens, UniProt P10721)", "T6 construct": "purchased Eurofins (KinaseProfiler service)", "test": "Kinase inhibition assay (Eurofins KinaseProfiler)", "format": "biochemical", "conditions": "ATP at Km", "description": "as §3\nc-Kit (h) was incubated with 8 mM MOPS pH 7.0, 0.2 mM EDTA, 10 mM MnCl2, 0.1 mg/mL poly(Glu, Tyr) 4:1, 10 mM MgAcetate and [gamma-33P]-ATP.\nas §4"}, "PDGFR-alfa(h)": {"molecular_target": "T7, PDGFR-alfa(h) (Homo sapiens, UniProt P16234)", "T7 construct": "purchased Eurofins (KinaseProfiler service)", "test": "Kinase inhibition assay (Eurofins KinaseProfiler)", "format": "biochemical", "conditions": "ATP at Km", "description": "as §3\n(§6) PDGFR-alfa(h) [PDGFR-beta(h)] was incubated with 8 mM MOPS pH 7.0, 0.2 mM EDTA, 0.1 mg/mL poly(Glu, Tyr) 4:1, 10 mM MnCl2, 10 mM MgAcetate and [gamma-33P]-ATP.\nas §4"}, "PDGFR-beta(h)": {"molecular_target": "T8, PDGFR-beta(h) (Homo sapiens, UniProt P09619)", "T8 construct": "purchased Eurofins (KinaseProfiler service)", "test": "Kinase inhibition assay (Eurofins KinaseProfiler)", "format": "biochemical", "conditions": "ATP at Km", "description": "as §3, §6, §4"}, "FGFR1(h)": {"molecular_target": "T9, FGFR1(h) (Homo sapiens, UniProt P11362)", "T9 construct": "purchased Eurofins (KinaseProfiler service)", "T9 sequence (P11362 22-822)": "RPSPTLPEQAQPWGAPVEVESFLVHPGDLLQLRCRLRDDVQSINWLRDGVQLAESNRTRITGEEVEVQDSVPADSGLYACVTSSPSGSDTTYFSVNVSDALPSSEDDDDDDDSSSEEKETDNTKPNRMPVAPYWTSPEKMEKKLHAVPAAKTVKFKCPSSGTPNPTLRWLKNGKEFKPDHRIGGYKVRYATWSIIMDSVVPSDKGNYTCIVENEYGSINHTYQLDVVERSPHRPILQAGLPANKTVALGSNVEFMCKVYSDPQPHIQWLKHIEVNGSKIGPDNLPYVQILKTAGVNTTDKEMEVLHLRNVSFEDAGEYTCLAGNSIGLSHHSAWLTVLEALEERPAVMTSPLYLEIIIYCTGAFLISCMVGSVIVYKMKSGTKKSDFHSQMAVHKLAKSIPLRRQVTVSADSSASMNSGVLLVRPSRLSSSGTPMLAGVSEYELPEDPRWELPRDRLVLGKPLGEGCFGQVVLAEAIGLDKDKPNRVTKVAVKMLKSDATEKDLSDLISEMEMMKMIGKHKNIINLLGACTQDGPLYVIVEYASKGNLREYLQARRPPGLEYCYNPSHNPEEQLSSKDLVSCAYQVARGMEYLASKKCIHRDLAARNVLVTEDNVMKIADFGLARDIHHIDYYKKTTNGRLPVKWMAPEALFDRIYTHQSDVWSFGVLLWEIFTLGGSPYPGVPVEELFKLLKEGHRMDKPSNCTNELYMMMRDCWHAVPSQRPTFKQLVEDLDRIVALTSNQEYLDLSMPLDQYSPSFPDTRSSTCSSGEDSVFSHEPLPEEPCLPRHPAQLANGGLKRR", "test": "Kinase inhibition assay (Eurofins KinaseProfiler)", "format": "biochemical", "conditions": "ATP at Km", "description": "as §3\nFGFR1 (h) was incubated with 8 mM MOPS pH 7.0, 0.2 mM EDTA, 250 uM KKKSPGEYVNIEFG, 10 mM MgAcetate and [gamma-33P]-ATP.\nas §4"}, "SiHa cells": {"system": "SiHa cells", "test": "Colony formation assay, SiHa", "format": "cell-based, human", "source_text": "(§7) Colony formation assay assesses the effect of a therapy on clonogenic survival which is one of the most important parameters of therapy efficacy in oncology. […] We also performed colony formation assay in SKOV3 cells at concentrations according to IC50 values to confirm the result (Figure S3).\n(§8) Cells treated with indicated compounds or vehicle were washed with PBS, trypsinized, and reseeded into 6-well plates at 500–1000 cells per well. The colonies were allowed to form for 10–15 days. At the end of the culture, cells were washed with PBS, fixed with methanol for 30 min, then stained with 0.5% crystal violet overnight. After careful washing, the images were taken."}, "SKOV3 cells": {"system": "SKOV3 cells", "test": "Colony formation assay, SKOV3", "format": "cell-based, human", "source_text": "as §7, §8"}}}
{"smiles": "CC(C)n1nnc2ccc(-c3nc(Nc4ccc(CNC(=O)C5(C(=O)Nc6ccccc6)CC5)cc4)ncc3F)cc21", "note": "[12O]", "values": [{"measurement": "IC50", "setting": "SKOV3", "value": 0.029, "unit": "µM"}, {"measurement": "IC50", "setting": "HeLa", "value": 0.024, "unit": "µM"}, {"measurement": "IC50", "setting": "4T1", "value": 0.068, "unit": "µM"}, {"measurement": "IC50", "setting": "OVCAR-5", "value": 0.052, "unit": "µM"}, {"measurement": "IC50", "setting": "A549", "value": 0.035, "unit": "µM"}, {"measurement": "IC50", "setting": "H460", "value": 0.041, "unit": "µM"}, {"measurement": "inhibition at 1 µM", "setting": "CDK9/cyclin T1(h); 1 µM", "value": 100, "unit": "%"}, {"measurement": "IC50", "setting": "CDK9/cyclin T1(h)", "value": 0.009, "unit": "µM"}, {"measurement": "inhibition at 1 µM", "setting": "Abl(h)", "value": 31, "unit": "%"}, {"measurement": "inhibition at 1 µM", "setting": "FLT1 (VEGFR1)", "value": 50, "unit": "%"}, {"measurement": "inhibition at 1 µM", "setting": "FLT3(h); 1 µM", "value": 98, "unit": "%"}, {"measurement": "IC50", "setting": "FLT3(h)", "value": 0.024, "unit": "µM"}, {"measurement": "inhibition at 1 µM", "setting": "FLT4 (VEGFR3); 1 µM", "value": 95, "unit": "%"}, {"measurement": "IC50", "setting": "FLT4 (VEGFR3)", "value": 0.068, "unit": "µM"}, {"measurement": "inhibition at 1 µM", "setting": "c-Kit(h)", "value": 15, "unit": "%"}, {"measurement": "inhibition at 1 µM", "setting": "PDGFR-alfa(h)", "value": -1, "unit": "%"}, {"measurement": "inhibition at 1 µM", "setting": "PDGFR-beta(h)", "value": 12, "unit": "%"}, {"measurement": "inhibition at 1 µM", "setting": "FGFR1(h)", "value": -23, "unit": "%"}, {"measurement": "formation of colonies", "setting": "SiHa cells", "value": "dose-dependently decreased"}, {"measurement": "proliferation by colony formation assay", "setting": "SKOV3 cells", "value": "effectively inhibited"}]}
